Data set [1] has as its target T1, Sodium channel protein type 1 subunit alpha (Homo sapiens, UniProt P35498). Description: Inhibition of human Nav1.1 expressed in HEK293 cells by electrophysiology assay. The data set is classed as cell-based.
Data set [2] concerns the target T2, Sodium channel protein type 2 subunit alpha (Homo sapiens, UniProt Q99250). Put plainly: Inhibition of human Nav1.2 expressed in HEK293 cells by electrophysiology assay. Format: cell-based.
For data set [3], the target named is T3, Sodium channel protein type 3 subunit alpha (Homo sapiens, UniProt Q9NY46). Put plainly: Inhibition of human Nav1.3 expressed in HEK293 cells by electrophysiology assay. Format: cell-based.
Data set [4] deals with T4, Sodium channel protein type 4 subunit alpha (Homo sapiens, UniProt P35499). Put plainly: Inhibition of human Nav1.4 expressed in HEK293 cells by electrophysiology assay. The data set is classed as cell-based.
Data set [5] deals with T5, Sodium channel protein type 5 subunit alpha (Homo sapiens, UniProt Q14524). Put plainly: Inhibition of human Nav1.5 expressed in HEK293 cells by electrophysiology assay. Format: cell-based.
The target of data set [6] is T6, Sodium channel protein type 8 subunit alpha (Homo sapiens, UniProt Q9UQD0). Description: Inhibition of human Nav1.6 expressed in HEK293 cells by electrophysiology assay. Format: cell-based.
For data set [7], the system named is Rattus norvegicus. Put plainly: Analgesic activity in iv dosed rat model of CFA-induced pain. The data set is classed as functional.
For data set [8], the system named is Rattus norvegicus. Description: Analgesic activity in it dosed rat model of CFA-induced pain. Format: functional.
For data set [9], the system named is Rattus norvegicus. Put plainly: Analgesic activity in it dosed rat model of formalin-induced pain. Format: functional.
For data set [10], the system named is Rattus norvegicus. Description: Analgesic activity in it dosed rat model of CFA-induced pain by Hargreaves test. Format: functional.
In data set [11] the target is T4, Sodium channel protein type 4 subunit alpha. Description: Binding affinity to human recombinant Nav1.4 by radioligand binding assay.
For data set [12], the target named is T5, Sodium channel protein type 5 subunit alpha. Put plainly: Binding affinity to human recombinant Nav1.5 by radioligand binding assay.
Data set [13] in a line: Unbound fraction in mouse plasma. The data set is classed as ADME, cell-free.
Data set [14] in a line: Ratio of unbound plasma concentration in mouse model of inherited erythromelalgia to Kd for binding affinity to recombinant human Nav1.7 by radioligand binding assay. Format: ADME. As to conditions: in vivo.
Data set [15] in a line: Ratio of unbound plasma concentration in mouse model of formalin-induced pain to Kd for binding affinity to mouse Nav1.7 by radioligand binding assay. Format: ADME. The conditions noted are these: in vivo.
Data set [16] is described as follows: Ratio of unbound plasma concentration in mouse model of CFA-induced cold allodynia to Kd for binding affinity to mouse Nav1.7 by radioligand binding assay. The data set is classed as ADME. The conditions noted are these: in vivo.
Data set [17] in a line: Ratio of unbound plasma concentration in mouse model of SNI-induced pain to Kd for binding affinity to mouse Nav1.7 by radioligand binding assay. The data set is classed as ADME. The conditions noted are these: in vivo.
Data set [18] can be described thus: Ratio of unbound plasma concentration in mouse model of STZ-induced pain measured on day 1 to Kd for binding affinity to mouse Nav1.7 by radioligand binding assay. The data set is classed as ADME. The conditions noted are these: in vivo.
Data set [19] has as its target Sodium channel protein type 9 subunit alpha (Mus musculus, UniProt Q62205). Put plainly: Binding affinity to mouse Nav1.7 by radioligand binding assay.
Data set [20] has as its target T1, Sodium channel protein type 1 subunit alpha. Description: Binding affinity to human recombinant Nav1.1 by radioligand binding assay.
Data set [21] addresses T2, Sodium channel protein type 2 subunit alpha. Put plainly: Binding affinity to human recombinant Nav1.2 by radioligand binding assay.
The target of data set [22] is T3, Sodium channel protein type 3 subunit alpha. Description: Binding affinity to human recombinant Nav1.3 by radioligand binding assay.
For data set [23], the target named is T6, Sodium channel protein type 8 subunit alpha. Put plainly: Binding affinity to human recombinant Nav1.6 by radioligand binding assay.
The target in data set [24] is Sodium channel protein type 10 subunit alpha (Mus musculus, UniProt Q6QIY3). Description: Binding affinity to mouse Nav1.8 […] by radioligand binding assay.
Data set [25] is filed under the species Homo sapiens. Put plainly: Selectivity ratio of Kd for binding affinity to human recombinant Nav1.1 by radioligand binding assay to Kd for binding affinity to human recombinant Nav1.7 by radioligand binding assay.
Data set [26] is filed under the species Homo sapiens. Description: Selectivity ratio of Kd for binding affinity to human recombinant Nav1.2 by radioligand binding assay to Kd for binding affinity to human recombinant Nav1.7 by radioligand binding assay.
For data set [27], the species on record is Homo sapiens. Description: Selectivity ratio of Kd for binding affinity to human recombinant Nav1.3 by radioligand binding assay to Kd for binding affinity to human recombinant Nav1.7 by radioligand binding assay.
The species named for data set [28] is Homo sapiens. Description: Selectivity ratio of Kd for binding affinity to human recombinant Nav1.4 by radioligand binding assay to Kd for binding affinity to human recombinant Nav1.7 by radioligand binding assay.
For data set [29], the species on record is Homo sapiens. Put plainly: Selectivity ratio of Kd for binding affinity to human recombinant Nav1.5 by radioligand binding assay to Kd for binding affinity to human recombinant Nav1.7 by radioligand binding assay.
Data set [30] is filed under the species Homo sapiens. Put plainly: Selectivity ratio of Kd for binding affinity to human recombinant Nav1.6 by radioligand binding assay to Kd for binding affinity to human recombinant Nav1.7 by radioligand binding assay.
Data set [31] is described as follows: Plasma concentration in mouse model of pain at 60 mg/kg, po during hot plate test. The data set is classed as ADME, organism-based. The conditions noted are these: in vivo.
The nature of data set [32]: Plasma concentration in mouse model of pain at 60 mg/kg, po during tail immersion test. The data set is classed as ADME, organism-based. The conditions noted are these: in vivo.
Data set [33] is described as follows: Plasma concentration in mouse model of pain at 60 mg/kg, po during Randall-Selitto test. The data set is classed as ADME, organism-based. The conditions noted are these: in vivo.
Data set [34] is described as follows: Plasma concentration in mouse model of CFA-induced pain at 60 mg/kg, po during Hargreaves test. As to conditions: in vivo. The data set is classed as ADME, organism-based.
A short description of data set [35]: Plasma concentration in mouse model of capsaicin-induced pain at 60 mg/kg, po during von Frey test. Format: ADME, organism-based. The conditions noted are these: in vivo.
Data set [36] is described as follows: Ratio of plasma concentration in mouse model of pain at 60 mg/kg, po during hot plate test to IC50 for inhibition of mouse Nav1.7 expressed in HEK293 cells by electrophysiology assay. Format: organism-based. The conditions noted are these: in vivo.
A short description of data set [37]: Ratio of plasma concentration in mouse model of pain at 60 mg/kg, po during tail immersion test to IC50 for inhibition of mouse Nav1.7 expressed in HEK293 cells by electrophysiology assay. As to conditions: in vivo. The data set is classed as organism-based.
A short description of data set [38]: Ratio of plasma concentration in mouse model of pain at 60 mg/kg, po during Randall-Selitto test to IC50 for inhibition of mouse Nav1.7 expressed in HEK293 cells by electrophysiology assay. Format: organism-based. The conditions noted are these: in vivo.
Data set [39] is described as follows: Ratio of plasma concentration in mouse model of CFA-induced pain at 60 mg/kg, po during Hargreaves test to IC50 for inhibition of mouse Nav1.7 expressed in HEK293 cells by electrophysiology assay. The data set is classed as organism-based. The conditions noted are these: in vivo.
Data set [40] is described as follows: Ratio of plasma concentration in mouse model of capsaicin-induced pain at 60 mg/kg, po during von Frey test to IC50 for inhibition of mouse Nav1.7 expressed in HEK293 cells by electrophysiology assay. As to conditions: in vivo. The data set is classed as organism-based.

The structures appear in SMILES notation.

T2 sequence (Q99250 whole entry): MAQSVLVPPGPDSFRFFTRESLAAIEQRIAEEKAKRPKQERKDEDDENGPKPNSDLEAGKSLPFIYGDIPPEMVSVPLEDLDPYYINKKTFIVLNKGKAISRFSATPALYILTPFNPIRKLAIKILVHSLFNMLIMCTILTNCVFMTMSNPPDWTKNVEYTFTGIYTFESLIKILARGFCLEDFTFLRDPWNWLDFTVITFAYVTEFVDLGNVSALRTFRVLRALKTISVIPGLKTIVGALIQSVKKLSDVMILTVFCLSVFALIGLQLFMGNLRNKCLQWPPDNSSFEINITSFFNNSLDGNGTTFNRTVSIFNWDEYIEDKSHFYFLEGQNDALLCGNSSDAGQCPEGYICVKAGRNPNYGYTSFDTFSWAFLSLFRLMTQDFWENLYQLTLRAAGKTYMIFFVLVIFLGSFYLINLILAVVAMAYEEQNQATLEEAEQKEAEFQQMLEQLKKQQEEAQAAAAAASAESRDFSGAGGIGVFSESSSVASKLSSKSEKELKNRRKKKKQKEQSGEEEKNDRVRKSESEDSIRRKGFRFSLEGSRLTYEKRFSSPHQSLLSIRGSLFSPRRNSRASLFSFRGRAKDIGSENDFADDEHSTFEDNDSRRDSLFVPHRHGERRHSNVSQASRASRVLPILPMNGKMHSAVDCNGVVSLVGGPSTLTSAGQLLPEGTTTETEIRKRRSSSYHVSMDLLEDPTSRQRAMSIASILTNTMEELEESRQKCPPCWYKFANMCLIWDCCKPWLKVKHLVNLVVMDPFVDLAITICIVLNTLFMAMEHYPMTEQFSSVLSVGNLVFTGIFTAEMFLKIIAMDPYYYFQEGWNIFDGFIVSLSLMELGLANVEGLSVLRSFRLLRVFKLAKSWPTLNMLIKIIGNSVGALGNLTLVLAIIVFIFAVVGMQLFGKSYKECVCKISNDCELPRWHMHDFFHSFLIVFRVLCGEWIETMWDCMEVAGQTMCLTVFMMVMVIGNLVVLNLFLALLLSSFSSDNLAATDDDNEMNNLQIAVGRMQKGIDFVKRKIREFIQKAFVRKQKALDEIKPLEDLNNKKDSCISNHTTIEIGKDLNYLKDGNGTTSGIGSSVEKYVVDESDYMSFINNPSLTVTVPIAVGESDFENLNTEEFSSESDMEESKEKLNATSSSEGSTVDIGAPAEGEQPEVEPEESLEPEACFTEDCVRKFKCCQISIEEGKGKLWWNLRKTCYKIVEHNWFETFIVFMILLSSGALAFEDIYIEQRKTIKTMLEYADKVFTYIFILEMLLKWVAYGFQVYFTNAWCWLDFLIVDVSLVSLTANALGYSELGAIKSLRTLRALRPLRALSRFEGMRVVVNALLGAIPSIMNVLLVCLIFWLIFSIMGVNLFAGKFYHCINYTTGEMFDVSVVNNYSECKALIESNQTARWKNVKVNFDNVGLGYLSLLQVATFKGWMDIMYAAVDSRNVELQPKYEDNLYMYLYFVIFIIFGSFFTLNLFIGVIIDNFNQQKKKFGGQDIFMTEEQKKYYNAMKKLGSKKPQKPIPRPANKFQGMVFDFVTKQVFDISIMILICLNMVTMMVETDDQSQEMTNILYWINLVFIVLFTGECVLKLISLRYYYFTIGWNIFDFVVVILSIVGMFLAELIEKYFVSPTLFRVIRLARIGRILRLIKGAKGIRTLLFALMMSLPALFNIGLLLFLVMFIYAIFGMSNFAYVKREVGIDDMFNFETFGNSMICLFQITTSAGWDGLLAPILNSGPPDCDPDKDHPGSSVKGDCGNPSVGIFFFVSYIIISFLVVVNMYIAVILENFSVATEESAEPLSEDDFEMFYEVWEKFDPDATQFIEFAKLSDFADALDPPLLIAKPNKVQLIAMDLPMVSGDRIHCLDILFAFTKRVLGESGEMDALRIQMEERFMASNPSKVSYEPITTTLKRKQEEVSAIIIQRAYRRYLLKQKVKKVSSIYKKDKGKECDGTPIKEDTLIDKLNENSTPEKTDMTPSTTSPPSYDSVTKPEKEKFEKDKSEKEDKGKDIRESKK
T5 sequence (Q14524 whole entry): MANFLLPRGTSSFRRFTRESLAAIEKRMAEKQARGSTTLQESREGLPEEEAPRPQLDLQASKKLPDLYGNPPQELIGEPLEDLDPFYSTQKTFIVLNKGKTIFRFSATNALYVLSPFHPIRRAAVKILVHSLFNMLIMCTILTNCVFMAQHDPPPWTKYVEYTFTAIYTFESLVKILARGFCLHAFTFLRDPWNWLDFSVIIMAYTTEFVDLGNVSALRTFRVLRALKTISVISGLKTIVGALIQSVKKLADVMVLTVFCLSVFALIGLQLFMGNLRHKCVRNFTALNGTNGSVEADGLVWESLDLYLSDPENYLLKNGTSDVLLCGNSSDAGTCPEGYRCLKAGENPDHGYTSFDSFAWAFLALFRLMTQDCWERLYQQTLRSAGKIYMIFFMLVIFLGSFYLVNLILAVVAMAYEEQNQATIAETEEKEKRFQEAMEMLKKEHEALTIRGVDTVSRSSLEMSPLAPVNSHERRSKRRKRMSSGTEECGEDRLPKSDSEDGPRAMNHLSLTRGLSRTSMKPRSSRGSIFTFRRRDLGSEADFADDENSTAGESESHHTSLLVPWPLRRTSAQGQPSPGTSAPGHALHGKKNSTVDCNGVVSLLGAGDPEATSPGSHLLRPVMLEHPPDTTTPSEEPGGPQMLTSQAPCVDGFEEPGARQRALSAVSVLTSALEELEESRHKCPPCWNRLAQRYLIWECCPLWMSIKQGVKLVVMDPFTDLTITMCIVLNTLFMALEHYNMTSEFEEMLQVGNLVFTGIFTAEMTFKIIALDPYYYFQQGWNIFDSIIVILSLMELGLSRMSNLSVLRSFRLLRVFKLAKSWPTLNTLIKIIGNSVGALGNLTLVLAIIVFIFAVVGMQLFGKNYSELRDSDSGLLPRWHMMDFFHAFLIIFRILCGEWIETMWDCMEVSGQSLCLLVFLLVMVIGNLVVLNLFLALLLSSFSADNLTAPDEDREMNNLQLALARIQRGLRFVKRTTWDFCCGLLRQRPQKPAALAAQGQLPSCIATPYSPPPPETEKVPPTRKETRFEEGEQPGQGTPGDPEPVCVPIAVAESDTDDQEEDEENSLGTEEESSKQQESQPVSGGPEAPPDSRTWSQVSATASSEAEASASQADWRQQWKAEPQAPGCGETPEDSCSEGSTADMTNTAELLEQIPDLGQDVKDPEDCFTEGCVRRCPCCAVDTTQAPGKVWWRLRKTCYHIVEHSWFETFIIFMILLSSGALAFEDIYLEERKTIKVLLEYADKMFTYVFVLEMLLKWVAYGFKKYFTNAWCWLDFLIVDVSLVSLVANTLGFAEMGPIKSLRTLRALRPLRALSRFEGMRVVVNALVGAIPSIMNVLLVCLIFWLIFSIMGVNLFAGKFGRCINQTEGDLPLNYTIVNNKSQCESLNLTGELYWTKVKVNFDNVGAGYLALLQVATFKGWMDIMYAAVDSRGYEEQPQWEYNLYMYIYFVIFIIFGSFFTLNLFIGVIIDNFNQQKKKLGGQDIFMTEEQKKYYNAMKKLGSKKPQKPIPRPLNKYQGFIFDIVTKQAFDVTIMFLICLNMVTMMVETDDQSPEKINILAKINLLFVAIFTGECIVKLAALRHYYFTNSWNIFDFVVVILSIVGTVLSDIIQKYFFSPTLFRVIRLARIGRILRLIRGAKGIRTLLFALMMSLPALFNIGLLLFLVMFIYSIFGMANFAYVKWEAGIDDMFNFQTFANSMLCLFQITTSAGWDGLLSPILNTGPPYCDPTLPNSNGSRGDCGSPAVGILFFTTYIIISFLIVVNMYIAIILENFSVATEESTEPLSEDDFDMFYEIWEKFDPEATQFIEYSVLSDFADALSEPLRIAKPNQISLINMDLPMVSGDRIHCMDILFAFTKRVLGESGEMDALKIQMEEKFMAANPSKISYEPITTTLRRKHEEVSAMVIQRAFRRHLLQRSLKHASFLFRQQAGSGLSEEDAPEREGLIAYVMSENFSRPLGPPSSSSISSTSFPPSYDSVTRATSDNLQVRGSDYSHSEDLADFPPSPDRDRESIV

By IC50 is commonly meant the concentration that gives 50% inhibition. High values mean weaker potency, low ones greater potency. Consider `CSCC[C@@H]1NC(=O)CNC(=O)[C@H](CCC(=O)O)NC(=O)[C@@H]2CSSC[C@H](NC(=O)[C@@H](N)Cc3ccc(O)cc3)C(=O)N[C@@H](CCC(N)=O)C(=O)N[C@@H](CCCCN)C(=O)N[C@@H](Cc3c[nH]c4ccccc34)C(=O)N[C@@H](CCSC)C(=O)N[C@@H](Cc3c[nH]c4ccccc34)C(=O)N[C@@H]([C@@H](C)O)C(=O)N[C@H]3CSSC[C@H](NC(=O)[C@H](C(C)C)NC1=O)C(=O)N[C@@H](CCCNC(=N)N)C(=O)N[C@@H](CC(C)C)C(=O)N[C@@H](Cc1c[nH]c4ccccc14)C(=O)N[C@H](C(=O)N[C@@H](CCCCN)C(=O)N[C@@H](CCCCN)C(=O)N[C@@H](CCCCN)C(=O)N[C@@H](CC(C)C)C(=O)N[C@@H](Cc1c[nH]c4ccccc14)C(=O)O)CSSC[C@H](NC(=O)[C@H](CCCCN)NC(=O)[C@H](CCCNC(=N)N)NC(=O)[C@H](CCC(=O)O)NC(=O)[C@H](CO)NC(=O)[C@H](CC(=O)O)NC3=O)C(=O)N2`, for which the IC50 in [1] worked out at 16 nM; in data set [2], 79 nM; in data set [3], 25 nM; in data set [4], 79 nM; in data set [5] it was 400 nM; in [6], 32 nM. Also, the ED is 0.1 mg/kg in the data set with Rattus norvegicus [7], 0.01 mg/kg in the data set with Rattus norvegicus [8], 2 µg in the data set on Rattus norvegicus [9] and 2 µg with Rattus norvegicus [10].
By Kd is commonly meant a measure of binding affinity in units of concentration. For orientation: fraction unbound means the share of the substance not bound to proteins or other matrix. In the case of `Cc1nn([C@@H]2CCN([C@H](C)c3cc(Cl)cc(Cl)c3)C2)c2cc(F)c(C(=O)NS(=O)(=O)C3CC3)cc12`, the Kd in data set [11] is 47 nM; in data set [12] it was 460 nM; in data set [19], 14 nM; in data set [20] it was 140 nM; in data set [21], 140 nM; in data set [22] it was 110 nM. Further, the Kd in [23] came out at 620 nM; in [24], 22000 nM. The compound further registered a fraction unbound in data set [13] of 0.007. Also, the Ratio in [14] was determined as 2.3; in data set [15], 3.3; in data set [16], 6.2; in [17], 5.7; in data set [18] it was 5; in [36], 25. For the same compound, the Ratio in data set [37] was 25; in data set [38], 25; in data set [39] it was 34; in data set [40] it was 16. The Ratio Ki came to 6.4 in the data set filed under Homo sapiens [25]; 6.4 in the data set filed under Homo sapiens [26]; 5 in the data set filed under Homo sapiens [27]; 2.1 in the data set listed under Homo sapiens [28]; 21 in the data set filed under Homo sapiens [29]; 28 in the data set filed under Homo sapiens [30]. The concentration in data set [31] was 49.3 µM; in data set [32], 49.3 µM; in [33], 49.3 µM; in data set [34] it was 67.9 µM; in [35], 31.1 µM.

For the origin of these results see ChEMBL document CHEMBL4321785, “Challenges and Opportunities for Therapeutics Targeting the Voltage-Gated Sodium Channel Isoform NaV1.7” (J Med Chem, 2019).
